According to US5677346A, “Treating urinary incontinence using (S)-desethyloxybutynin” (Sepracor, Inc., priority 1995, dated 1997):

How the values were obtained:
[1] = tested on: guinea pig bladder smooth muscle strips; experiment: Potassium-induced contraction of isolated bladder strips (spasmolytic activity)
[2] = target: T1, human recombinant M2 muscarinic receptor (Homo sapiens, UniProt P08172); experiment: biochemical; type: binding; details: for inhibition at 10 µM: read-out: percent inhibition of specific radioligand binding M2H 10^-5 M; for inhibition at 0.1 µM: read-out: percent inhibition of specific radioligand binding M2H 10^-7 M
T1 construct: made in house; host or cells: SF9 insect cells infected with baculovirus (membranes)
T1 sequence (P08172 1-466): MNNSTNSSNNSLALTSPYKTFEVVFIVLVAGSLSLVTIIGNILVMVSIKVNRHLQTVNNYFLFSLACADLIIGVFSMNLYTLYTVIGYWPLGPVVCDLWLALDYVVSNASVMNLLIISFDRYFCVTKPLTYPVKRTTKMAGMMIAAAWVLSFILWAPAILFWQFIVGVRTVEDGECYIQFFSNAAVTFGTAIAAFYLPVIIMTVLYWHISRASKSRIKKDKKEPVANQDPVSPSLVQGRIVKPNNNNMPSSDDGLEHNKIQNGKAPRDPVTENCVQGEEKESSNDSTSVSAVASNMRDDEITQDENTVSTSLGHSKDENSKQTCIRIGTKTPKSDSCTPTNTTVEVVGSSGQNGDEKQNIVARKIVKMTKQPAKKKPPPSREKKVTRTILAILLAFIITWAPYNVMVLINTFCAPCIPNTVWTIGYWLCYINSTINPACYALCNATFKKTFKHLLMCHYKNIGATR

[3] = tested on: Ca channel (T + L, verapamil site); experiment: Binding to calcium channel, verapamil site ([3H]D 888, rat cerebral cortex); details: for percent inhibition of specific radioligand binding, Calcium (verapamil): Table 8, 10^-5 M
[4] = target: T2, bladder muscarinic receptors (guinea pig bladder smooth muscle strips) (Cavia porcellus, UniProt H0W1Z3); experiment: Carbachol-induced contraction of isolated bladder strips (antimuscarinic activity); details: for Slope (Schild regression): Table 9, mean ± SE
T2 construct: isolated strips of guinea pig bladder smooth muscle; from tissue; host or cells: urinary bladder strips of male Hartley guinea pigs

[5] = tested on: Ca channel (T + L, diltiazem site); type: binding, rat; details: for percent inhibition of specific radioligand binding, Calcium (diltiazem): Table 8, 10^-5 M
[6] = target: T3, human recombinant M4 muscarinic receptor (Homo sapiens, UniProt P08173); experiment: biochemical; type: binding; details: for inhibition at 10 µM: read-out: percent inhibition of specific radioligand binding M4H 10^-5 M; for inhibition at 0.1 µM: read-out: percent inhibition of specific radioligand binding M4H 10^-7 M; for inhibition at 0.001 µM: read-out: percent inhibition of specific radioligand binding M4H 10^-9 M
T3 construct: made in house; host or cells: SF9 insect cells infected with baculovirus (membranes)
T3 sequence (P08173 1-479): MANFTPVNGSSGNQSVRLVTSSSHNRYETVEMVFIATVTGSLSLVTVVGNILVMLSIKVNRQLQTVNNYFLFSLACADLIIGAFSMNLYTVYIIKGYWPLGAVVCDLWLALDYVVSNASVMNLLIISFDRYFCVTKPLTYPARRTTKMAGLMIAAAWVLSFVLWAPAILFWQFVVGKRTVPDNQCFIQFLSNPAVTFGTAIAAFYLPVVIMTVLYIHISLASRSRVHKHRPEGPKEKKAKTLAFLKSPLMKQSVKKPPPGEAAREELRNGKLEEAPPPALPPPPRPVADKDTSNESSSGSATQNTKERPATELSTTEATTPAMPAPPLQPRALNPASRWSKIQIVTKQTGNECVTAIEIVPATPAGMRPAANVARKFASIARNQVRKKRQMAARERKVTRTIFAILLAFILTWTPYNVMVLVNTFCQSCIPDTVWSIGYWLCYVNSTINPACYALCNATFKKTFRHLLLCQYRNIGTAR

[7] = tested on: human muscarinic receptor subtypes M1-M4; experiment: Binding to human muscarinic receptor subtypes M1-M4, overall result
[8] = tested on: calcium channel (diltiazem and verapamil sites); experiment: Binding at calcium channels, overall result; set-up: species or system rat; details: 10^-5 M
[9] = Table 10, 137.7 mM K+, 60 min exposure, n = 3, * significantly different from untreated (< 0.01)

T2 sequence (H0W1Z3 1-590): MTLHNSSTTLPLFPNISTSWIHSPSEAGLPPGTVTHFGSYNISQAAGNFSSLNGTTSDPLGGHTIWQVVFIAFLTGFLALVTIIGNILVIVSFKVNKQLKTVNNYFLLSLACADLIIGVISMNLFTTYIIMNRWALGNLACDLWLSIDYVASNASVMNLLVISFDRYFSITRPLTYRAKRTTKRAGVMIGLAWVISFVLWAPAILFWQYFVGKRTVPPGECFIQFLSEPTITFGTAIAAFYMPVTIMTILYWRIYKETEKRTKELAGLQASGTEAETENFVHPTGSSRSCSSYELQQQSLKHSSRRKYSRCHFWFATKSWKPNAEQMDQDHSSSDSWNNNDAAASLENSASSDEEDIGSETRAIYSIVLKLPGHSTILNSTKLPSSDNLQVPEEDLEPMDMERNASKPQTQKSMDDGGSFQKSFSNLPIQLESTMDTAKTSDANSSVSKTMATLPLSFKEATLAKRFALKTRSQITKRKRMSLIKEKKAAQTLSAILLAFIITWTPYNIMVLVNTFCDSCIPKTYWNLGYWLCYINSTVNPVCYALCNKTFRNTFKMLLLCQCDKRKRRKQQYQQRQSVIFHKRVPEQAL

Row | SMILES | Mean % pretreatment ± SE (magnitude of contraction induced by 137.7 mM K+ after exposure to compound / before) [1, 9] [%] | IC50 [2] [nM] | inhibition at 0.1 µM [2] [%] | percent inhibition of specific radioligand binding, Calcium (verapamil) [3] [%] | Kb [4] [nM] | Slope (Schild regression) [4] | percent inhibition of specific radioligand binding, Calcium (diltiazem) [5] [%] | inhibition at 10 µM [6] [%] | inhibition at 0.1 µM [6] [%] | also measured
1 | CCN(CC)CC#CCOC(=O)[C@@](O)(c1ccccc1)C1CCCCC1 [S-OXY, 4-(diethylamino)-2-butynyl α-cyclohexyl-α-hydroxybenzeneacetate] | – | – | – | – | – | – | – | – | – | Mean % pretreatment ± SE (magnitude of contraction induced by 137.7 mM K+ after exposure to compound / before) ([1]; guinea pig, bladder strips, 60 min): 26 ± 9%
2 | CCNCC#CCOC(=O)[C@](O)(c1ccccc1)C1CCCCC1.Cl [R-DEO, 4-(Ethylamino)-2-butynyl (R)-α-cyclohexyl-α-hydroxybenzeneacetate hydrochloride salt] | 36 ± 5 | 14.7 | 97 | 96 | 0.912 | 1.16 ± 0.11 | 86 | 99 | 100 | inhibition at 10 µM [2]: 102%; inhibition at 0.001 µM ([2]; read-out: percent inhibition of specific radioligand binding M2H 10^-9 M): 21%; inhibition at 0.001 µM [6]: 58%
3 | CCNCC#CCOC(=O)[C@@](O)(c1ccccc1)C1CCCCC1.Cl [S-DEO, 4-(Ethylamino)-2-butynyl (S)-α-cyclohexyl-α-hydroxybenzeneacetate hydrochloride salt] | – | 177 | 36 | 76 | 49 | 0.87 ± 0.11 | 72 | 99 | 43 | affinity for muscarinic receptor subtypes (in words) [7]: less affinity for muscarinic receptor subtypes than either R- or racemic DEO; calcium entry blocking activity (in words) [8]: calcium entry blocking activity similar to that of R- and racemic DEO; antagonism of bladder muscarinic receptors (in words) ([4]; carbachol-induced contraction): less potent antagonists of bladder muscarinic receptors than are R- and racemic OXY and R- and racemic DEO
4 | CCN(CC)CC#CCOC(=O)[C@](O)(c1ccccc1)C1CCCCC1 [R-OXY, reference compound] | 32 ± 8 | – | – | – | – | – | – | – | – | –
5 | CCN(CC)CC#CCOC(=O)C(O)(c1ccccc1)C1CCCCC1 (racemic) [RS-OXY, 4-(diethylamino)-2-butynyl α-cyclohexyl-α-hydroxybenzeneacetate, reference compound] | 20 ± 1 | – | – | – | – | – | – | – | – | –
6 | CCNCC#CCOC(=O)C(O)(c1ccccc1)C1CCCCC1.Cl (racemic) [RS-DEO, 4-(Ethylamino)-2-butynyl α-cyclohexyl-α-hydroxybenzeneacetate hydrochloride salt] | 47 ± 8 | 7 | 94 | 89 | 2.82 | 1.35 ± 0.25 | 88 | 95 | 99 | inhibition at 10 µM [2]: 99%; inhibition at 0.001 µM [6]: 34%
7 | COc1ccc(CCN(C)CCCC(C#N)(c2cc(OC)c(OC)c(OC)c2)C(C)C)cc1OC (racemic) [D600, reference compound] | – | – | – | – | – | – | – | – | – | IC50 ([3]; Table 5, reference compound, 8 concentrations, read-out: Ref. Compound IC50, Calcium (verapamil)): 36.4 nM
8 | COc1ccc([C@@H]2Sc3ccccc3N(CCN(C)C)C(=O)[C@@H]2OC(C)=O)cc1 [diltiazem, reference compound] | – | – | – | – | – | – | – | – | – | IC50 ([5]; Table 5, reference compound, 8 concentrations, read-out: Ref. Compound IC50, Calcium (diltiazem)): 55.8 nM
